These results are taken from US11608335B2, “Somatostatin modulators and uses thereof” (CRINETICS PHARMACEUTICALS, INC., priority 2018, dated 2023).

In the assay the target is human somatostatin receptor subtype 5 (Homo sapiens, UniProt P35346). Nature of the assay: cAMP assay for SST5R (inhibition of cAMP via human SST5 receptor).
Sequence of human somatostatin receptor subtype 5 (P35346 whole entry): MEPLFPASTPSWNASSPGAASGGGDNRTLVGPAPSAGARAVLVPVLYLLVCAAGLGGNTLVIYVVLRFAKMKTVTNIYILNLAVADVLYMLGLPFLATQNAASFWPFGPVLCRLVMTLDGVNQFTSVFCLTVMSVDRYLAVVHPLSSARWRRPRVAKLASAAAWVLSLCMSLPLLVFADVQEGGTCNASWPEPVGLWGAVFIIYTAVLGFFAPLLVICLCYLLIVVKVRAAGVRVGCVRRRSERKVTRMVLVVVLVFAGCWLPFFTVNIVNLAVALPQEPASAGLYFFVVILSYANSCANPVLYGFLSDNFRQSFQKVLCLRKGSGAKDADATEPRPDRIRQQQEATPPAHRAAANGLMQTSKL
As a reminder, the EC50 is the concentration giving half of the maximal effect. Consider `NC(=O)c1cc(F)cc(-c2cncc(-c3nc4cccc(F)c4[nH]3)c2N2CC[C@H](N)C2)c1` [Compound 2-72, 3-{4-[(3S)-3-aminopyrrolidin-1-yl]-5-(4-fluoro-1H-1,3-benzodiazol-2-yl)pyridin-3-yl}-5-fluorobenzamide], for which the EC50 was < 0.01 µM.
Next, `COc1ccc(-c2cncc(-c3nc4cccc(F)c4[nH]3)c2N2CC[C@H](N)C2)cc1C(N)=O` [Compound 2-73, 5-{4-[(3S)-3-aminopyrrolidin-1-yl]-5-(4-fluoro-1H-1,3-benzodiazol-2-yl)pyridin-3-yl}-2-methoxybenzamide]: > 1 µM; `Cn1c(-c2cncc(-c3cccc(C#N)c3)c2N2CC[C@H](N)C2)nc2c(F)cccc21` [Compound 2-74, 3-{4-[(3S)-3-aminopyrrolidin-1-yl]-5-(4-fluoro-1-methyl-1H-1,3-benzodiazol-2-yl)pyridin-3-yl}benzonitrile]: < 0.01 µM; `Cn1c(-c2cncc(-c3cccc(C#N)c3)c2N2CC[C@H](N)C2)nc2c(Cl)cccc21` [Compound 2-75, 3-{4-[(3S)-3-aminopyrrolidin-1-yl]-5-(4-chloro-1-methyl-1H-1,3-benzodiazol-2-yl)pyridin-3-yl}benzonitrile]: < 0.01 µM.
Consider `N#Cc1cc(F)cc(-c2cncc(-c3nc4cccc(F)c4[nH]3)c2N2CCC(N)(C(F)(F)F)C2)c1` (stereo not drawn) [Compound 2-78, 3-{4-[3-amino-3-(trifluoromethyl)pyrrolidin-1-yl]-5-(4-fluoro-1H-1,3-benzodiazol-2-yl)pyridin-3-yl}-5-fluorobenzonitrile], for which the EC50 was in the range of 0.1 to 1 µM.
Turning to `N#Cc1cccc(-c2cncc(-c3nc4c(C(=O)O)cccc4[nH]3)c2N2CC[C@H](N)C2)c1` [Compound 2-82, 2-{4-[(3S)-3-aminopyrrolidin-1-yl]-5-(3-cyanophenyl)pyridin-3-yl}-1H-1,3-benzodiazole-4-carboxylic acid], the EC50 was > 1 µM.
Next, `N#Cc1cccc(-c2cncc(-c3nc4c(C(N)=O)cccc4[nH]3)c2N2CC[C@H](N)C2)c1` [Compound 2-83, 2-{4-[(3S)-3-aminopyrrolidin-1-yl]-5-(3-cyanophenyl)pyridin-3-yl}-1H-1,3-benzodiazole-4-carboxamide]: 0.1 to 1 µM; `C#Cc1cccc2[nH]c(-c3cncc(-c4cccc(C#N)c4)c3N3CC[C@H](N)C3)nc12` [Compound 2-84, 3-{4-[(3S)-3-Aminopyrrolidin-1-yl]-5-(4-ethynyl-1H-1,3-benzodiazol-2-yl)pyridin-3-yl}benzonitrile]: < 0.01 µM.
Consider `NC(=O)c1cccc(-c2cncc(-c3nc4cccc(F)c4[nH]3)c2N2CC[C@H](N)C2)c1` [Compound 2-85, 3-{4-[(3S)-3-aminopyrrolidin-1-yl]-5-(4-fluoro-1H-1,3-benzodiazol-2-yl)pyridin-3-yl}benzamide], for which the EC50 was < 0.01 µM.
Next, `N#Cc1cc(F)cc(-c2cncc(-c3nc4cc(F)cc(F)c4[nH]3)c2N2CC[C@H](N)C2)c1` [Compound 2-87, 3-{4-[(3S)-3-aminopyrrolidin-1-yl]-5-(4,6-difluoro-1H-1,3-benzodiazol-2-yl)pyridin-3-yl}-5-fluorobenzonitrile]: < 0.01 µM; `N#Cc1cc(F)cc(-c2cncc(-c3nc4cccc(F)c4[nH]3)c2N2C[C@@H](N)C[C@H]2CO)c1` [Compound 2-88, 3-{4-[(2S,4S)-4-amino-2-(hydroxymethyl)pyrrolidin-1-yl]-5-(4-fluoro-1H-1,3-benzodiazol-2-yl)pyridin-3-yl}-5-fluorobenzonitrile]: > 1 µM; `CNC(=O)c1cccc2nc(-c3cncc(-c4cccc(C#N)c4)c3N3CC[C@H](N)C3)[nH]c12` [Compound 2-90, 2-{4-[(3S)-3-aminopyrrolidin-1-yl]-5-(3-cyanophenyl)pyridin-3-yl}-N-methyl-1H-1,3-benzodiazole-4-carboxamide]: > 1 µM.
